Consider two compounds from ChEMBL document CHEMBL1125726 (J Med Chem, 1991).

The target of assay [1] is D(1A) dopamine receptor (Rattus norvegicus, UniProt P18901). Briefly: biochemical.
Description: Compound was evaluated for its ability to inhibit dopamine receptor D1 in rat striatum using [3H]SCH-23390
Assay [2] has as its target D(2) dopamine receptor (Rattus norvegicus, UniProt P61169). Briefly: biochemical.
Description: Compound was evaluated for its ability to inhibit dopamine receptor D2 in rat striatum using [3H]-spiperone
The target in assay [3] is Dopamine receptor.
Description: Compound was evaluated for its ability to inhibit Striatal Dopamine Receptor in rat brain through radioreceptor assay carried out with agonist ligand.

pKi: −log10 of the molar value. Some results are limits rather than exact numbers.

D(2) dopamine receptor, sequence (P61169 whole entry): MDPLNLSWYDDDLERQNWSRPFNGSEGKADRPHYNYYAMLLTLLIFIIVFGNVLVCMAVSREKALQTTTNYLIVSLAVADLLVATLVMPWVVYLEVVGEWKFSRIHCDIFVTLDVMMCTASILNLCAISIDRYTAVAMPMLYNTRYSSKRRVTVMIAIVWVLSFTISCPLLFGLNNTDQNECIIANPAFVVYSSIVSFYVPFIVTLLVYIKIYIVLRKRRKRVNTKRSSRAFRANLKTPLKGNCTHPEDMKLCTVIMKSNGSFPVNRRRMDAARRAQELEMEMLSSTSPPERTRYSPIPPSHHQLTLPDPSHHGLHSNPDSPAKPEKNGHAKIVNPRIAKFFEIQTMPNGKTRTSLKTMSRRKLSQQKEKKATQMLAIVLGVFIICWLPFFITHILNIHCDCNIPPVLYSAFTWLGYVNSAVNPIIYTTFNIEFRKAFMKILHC
D(1A) dopamine receptor, sequence (P18901 whole entry): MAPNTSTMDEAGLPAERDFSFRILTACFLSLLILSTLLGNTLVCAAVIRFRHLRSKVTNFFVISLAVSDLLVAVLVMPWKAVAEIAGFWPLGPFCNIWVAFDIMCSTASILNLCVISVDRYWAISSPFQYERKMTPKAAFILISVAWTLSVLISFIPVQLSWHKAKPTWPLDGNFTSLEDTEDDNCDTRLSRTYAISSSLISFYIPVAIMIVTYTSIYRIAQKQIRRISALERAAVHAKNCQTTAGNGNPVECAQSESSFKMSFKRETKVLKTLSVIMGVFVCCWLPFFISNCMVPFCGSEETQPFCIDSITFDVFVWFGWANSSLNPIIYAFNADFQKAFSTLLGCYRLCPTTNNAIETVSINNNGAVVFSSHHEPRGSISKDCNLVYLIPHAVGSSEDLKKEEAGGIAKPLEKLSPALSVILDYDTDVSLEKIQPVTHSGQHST

`C=CCN1CCc2cccc3c2[C@@H]1Cc1cccc(O)c1-3`: the pKi in assay [1] was < 5.00; in assay [2] it was 6.81. This compound returned a Ki in assay [3] of 1595 nM.
The corresponding values for `C=CCN1CCc2cccc3c2[C@H]1Cc1cccc(O)c1-3` are 6.34, 8.70 and 0.034 nM.
